Measurements: US20060069084A1, “Methods of inhibiting kinases” (priority 2001, published 2006)

Assays:
Format in all cases: biochemical
Conditions in all cases: inhibit 50% of activity at 50 μM
JAK2 = molecular target: T1, JAK2 (Homo sapiens, UniProt O60674); assay: JAK2 kinase domain capture-based ELISA kinase assay
T1 construct: The kinase domain of humanJAK2 was amplified from U937mRNA; His tag (from pFastBac HTc vector; nickel chelate purification) (N); made in house; host or cells: baculovirus; virus made in Sf9, large-scale expression in High Five insect cells
Experimental: (§1) For screening purposes, compounds were diluted in 96 well plates at a concentration of 50 μM or 20 μM. Plates were warmed at 37° C. for 30 minutes before assay.
The kinase domain of humanJAK2 was amplified from U937mRNA using the polymerase chain reaction with the following primers: […]
JAK2 PCR products were cloned into the pFastBac HTc expression vector (Gibco) via the Sal I and Not I sites. The JAK2 plasmid was then transformed into competent DH10Bac cells (Gibco), and the recombinant baculovirus produced prepared for transfection into Sf9 insect cells.
(§2) Baculovirus preparations from each of the JAK family members were infected into five litres of High Five cells (Invitrogen) grown in High Five serum free medium (Invitrogen) to a cell density of approximately 1-2×10^6 cells/ml. Cells are infected with virus at a MOI of 0.8-3.0. Cells were harvested and lysed. JAK kinase domains were purified by affinity chromatography on a Probond (Invitrogen) nickel chelate affinity column.
(§3) The biotinylated substrate biotin-EGPWLEEEEEAYGWMDF-NH2 (SEQ ID NO:9) (final concentration 5 μM) was used as substrate, and tyrosine phosphorylation was quantitated following transfer to an avidin coated ELISA plate using peroxidase-linked anti-phospho-tyrosine antibody PY20.
(§4) Inhibitors were added to the assays fifteen minutes prior to the addition of ATP. Inhibitors were added in aqueous DMSO, with DMSO concentrations never exceeding 1%.

JAK1 = molecular target: T2, JAK1 (Homo sapiens, UniProt P23458); assay: JAK1 kinase domain capture-based ELISA kinase assay
T2 construct: The kinase domain of humanJAK1 was amplified from U937mRNA; His tag (from pFastBac HTb vector; nickel chelate purification) (N); made in house; host or cells: baculovirus; virus made in Sf9, large-scale expression in High Five insect cells
Experimental: as §1
The kinase domain of humanJAK1 was amplified from U937mRNA using the polymerase chain reaction with the following primers: […]
JAK1 PCR products were cloned into the pFastBac HTb expression vector (Gibco) via the Xho I and Kpn I sites. The JAK1 plasmid was then transformed into competent DH10Bac cells (Gibco), and the recombinant baculovirus produced prepared for transfection into Sf9 insect cells.
as §2, §3, §4

TYK2 = molecular target: T3, TYK2 (Homo sapiens, UniProt P29597); assay: TYK2 kinase domain capture-based ELISA kinase assay
T3 construct: The kinase domain of humanTYK2 was amplified from A549 mRNA; His tag (from pBlueBacHis2A vector; nickel chelate purification) (N); made in house; host or cells: baculovirus; virus made in Sf9, large-scale expression in High Five insect cells
T3 sequence (P29597 897-1176 limits assumed): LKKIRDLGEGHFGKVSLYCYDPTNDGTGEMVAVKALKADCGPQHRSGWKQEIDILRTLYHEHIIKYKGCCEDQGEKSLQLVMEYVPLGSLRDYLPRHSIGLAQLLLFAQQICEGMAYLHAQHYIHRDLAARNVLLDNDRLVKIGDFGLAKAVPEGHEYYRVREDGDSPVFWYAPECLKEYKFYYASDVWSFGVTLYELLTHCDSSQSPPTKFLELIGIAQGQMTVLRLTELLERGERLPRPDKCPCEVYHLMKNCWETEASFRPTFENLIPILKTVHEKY
Experimental: as §1
The kinase domain of humanTYK2 was amplified from A549 mRNA using the polymerase chain reaction with the following primers: […]
TYK2 PCR products were cloned into pBlueBacHis2A (Invitrogen) via the EcoRI site. The recombinant TYK2 baculovirus produced was prepared for transfected into Sf9 insect cells.
as §2, §3, §4

JAK3 = molecular target: T4, JAK3 (Homo sapiens, UniProt P52333); assay: JAK3 kinase domain capture-based ELISA kinase assay
T4 construct: The kinase domain of humanJAK3 was amplified from U937mRNA; His tag (from pFastBac HTb vector; nickel chelate purification) (N); made in house; host or cells: baculovirus; virus made in Sf9, large-scale expression in High Five insect cells
Experimental: as §1
The kinase domain of humanJAK3 was amplified from U937mRNA using the polymerase chain reaction with the following primers: […]
JAK3 PCR products were cloned into the pFastBac HTb expression vector (Gibco) via the Xho I and Kpn I sites. The JAK3 plasmid was then transformed into competent DH10Bac cells (Gibco), and the recombinant baculovirus produced prepared for transfection into Sf9 insect cells.
as §2, §3, §4

T4 sequence (P52333 822-1111 limits assumed): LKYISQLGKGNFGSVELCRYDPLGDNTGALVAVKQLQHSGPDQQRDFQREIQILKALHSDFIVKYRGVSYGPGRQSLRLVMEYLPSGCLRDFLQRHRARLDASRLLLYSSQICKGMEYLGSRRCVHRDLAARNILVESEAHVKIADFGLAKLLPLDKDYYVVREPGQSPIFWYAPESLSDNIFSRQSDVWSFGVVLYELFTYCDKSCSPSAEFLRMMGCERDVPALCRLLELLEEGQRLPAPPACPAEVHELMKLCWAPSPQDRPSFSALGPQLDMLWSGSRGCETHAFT
T2 sequence (P23458 875-1153 limits assumed): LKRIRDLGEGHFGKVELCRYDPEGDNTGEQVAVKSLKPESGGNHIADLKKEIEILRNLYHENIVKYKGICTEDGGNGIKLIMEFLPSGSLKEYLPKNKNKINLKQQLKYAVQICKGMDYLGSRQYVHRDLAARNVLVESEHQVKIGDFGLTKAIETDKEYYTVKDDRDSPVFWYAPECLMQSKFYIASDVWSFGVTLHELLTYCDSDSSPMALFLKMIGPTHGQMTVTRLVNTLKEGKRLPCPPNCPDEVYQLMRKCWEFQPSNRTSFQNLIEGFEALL
T1 sequence (O60674 849-1124 limits assumed): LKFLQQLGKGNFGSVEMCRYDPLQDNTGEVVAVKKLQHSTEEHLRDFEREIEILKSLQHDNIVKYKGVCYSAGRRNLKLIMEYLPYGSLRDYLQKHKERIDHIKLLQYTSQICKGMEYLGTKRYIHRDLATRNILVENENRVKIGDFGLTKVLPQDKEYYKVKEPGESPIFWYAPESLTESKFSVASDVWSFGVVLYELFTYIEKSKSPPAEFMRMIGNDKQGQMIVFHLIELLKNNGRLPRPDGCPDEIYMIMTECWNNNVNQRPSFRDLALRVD

IC50 (JAK2; Table 6) [µM]	IC50 (JAK1; Table 6) [µM]	IC50 (TYK2; Table 6) [µM]	IC50 (JAK3; Table 6) [µM]	IC50 (JAK2; Table 3) [µM]	IC50 (JAK1; Table 3) [µM]	IC50 (TYK2; Table 3) [µM]	IC50 (JAK3; Table 3) [µM]	Structure (SMILES)
				< 50	< 50	< 50	< 50	COc1cccc(-c2cccc(N3CCN(C)CC3)n2)c1 [CYT13809]
				< 50	< 50	< 50	< 50	COc1cncc(-c2cccc(Nc3cccnc3)n2)c1 [CYT14607]
				< 50	< 50	< 50	< 50	c1cncc(Nc2cccc(-c3ccncc3)n2)c1 [CYT14804]
				< 50	< 50	< 50	< 50	COc1cncc(-c2cncc(NCc3cccs3)n2)c1 [CYT20303]
				< 50	< 50	< 50	< 50	Fc1ccc(CNc2cncc(-c3cccnc3)n2)cc1 [CYT20307]
				< 50	< 50	< 50	< 50	CC(=O)Nc1cccc(-c2cncc(NCc3cccc(Cl)c3)n2)c1 [CYT20310]
				< 50	< 50	< 50	< 50	COc1cncc(-c2cncc(NCc3ccco3)n2)c1 [CYT20406]
				< 50	< 50	< 50	< 50	C[C@H](Nc1cncc(-c2cccc(CO)c2)n1)c1ccccc1 [CYT20504]
				< 50	< 50	< 50	< 50	OCc1cccc(-c2cncc(NCc3ccccc3)n2)c1 [CYT20506]
				< 50	< 50	< 50	< 50	CC(=O)Nc1cccc(-c2cncc(N[C@@H](C)c3ccccc3)n2)c1 [CYT20508]
				< 50	< 50	< 50	< 50	COc1cc(-c2cncc(N[C@@H](C)c3ccccc3)n2)cc(OC)c1OC [CYT20510]
				< 50	< 50	< 50	< 50	COc1cncc(-c2cncc(NCC(C)(C)CO)n2)c1 [CYT21103]
				< 50	< 50	< 50	< 50	COc1cc(-c2cncc(NCCc3ccncc3)n2)cc(OC)c1OC [CYT21404]
				< 50	< 50	< 50	< 50	COc1cncc(-c2cncc(N[C@H](CO)C(C)C)n2)c1 [CYT21507]
				< 50	< 50	< 50	< 50	COc1cncc(-c2cncc(NCc3ccc(F)cc3)n2)c1 [CYT24108]
				< 50	< 50	< 50	< 50	COc1cncc(-c2cncc(N[C@@H](C)c3ccccc3)n2)c1 [CYT24510]
				< 50	< 50	< 50	< 50	COc1cncc(-c2cncc(NCc3ccccc3)n2)c1 [CYT24605]

The next lines start with the compound.

Structure (SMILES)	IC50 (JAK2; Table 6) [µM]	IC50 (JAK1; Table 6) [µM]	IC50 (TYK2; Table 6) [µM]	IC50 (JAK3; Table 6) [µM]	IC50 (JAK2; Table 3) [µM]	IC50 (JAK1; Table 3) [µM]	IC50 (TYK2; Table 3) [µM]	IC50 (JAK3; Table 3) [µM]
CN(C)c1ccc(-c2cn3ccnc3c(NC3CC3)n2)cc1	> 50	> 50	> 50	< 50				
FC(F)C(F)(F)Oc1cccc(Nc2nc(-c3cc(C(F)(F)F)cc(C(F)(F)F)c3)cn3ccnc23)c1	> 50	< 50	> 50	> 50				
CC(=O)Nc1cccc(-c2cn3ccnc3c(Nc3ccc(N4CCOCC4)cc3)n2)c1	< 50	< 50	< 50	> 50				
OCCc1ccc(Nc2nc(-c3ccccc3F)cn3ccnc23)cc1	< 50	< 50	< 50	< 50				
O=C(O)c1cccc(-c2cn3ccnc3c(Nc3ccc4cn[nH]c4c3)n2)c1	< 50	< 50	< 50	> 50				
O=C(O)c1ccc(-c2cn3ccnc3c(Nc3ccc4cn[nH]c4c3)n2)cc1	< 50	< 50	< 50	> 50				
COc1ccc(Nc2nc(-c3ccccc3OC)cn3ccnc23)cn1	< 50	< 50	< 50	> 50				
c1coc(-c2cn3ccnc3c(Nc3ccc4[nH]ccc4c3)n2)c1	< 50	< 50	< 50	> 50				
Oc1cccc(-c2cn3ccnc3c(N3CCOCC3)n2)c1	< 50	> 50	> 50	> 50				
CCCC/C=C/c1cn2ccnc2c(Nc2ccc(OC)nc2)n1	< 50	> 50	> 50	> 50				
COc1ccc(Nc2nc(-c3ccccc3Cl)cn3ccnc23)cn1	< 50	> 50	> 50	> 50				
CCCC/C=C/c1cn2ccnc2c(NC2CCC(O)CC2)n1 (stereo not shown)	> 50	> 50	> 50	< 50				
c1cncc(-c2cn3ccnc3c(NCCc3ccncc3)n2)c1	> 50	> 50	> 50	< 50				
c1cncc(CCNc2nc(-c3ccco3)cn3ccnc23)c1	> 50	> 50	> 50	< 50				
COc1ccc(Nc2nc(-c3c(C)cccc3C)cn3ccnc23)cn1	> 50	> 50	> 50	< 50				
c1ccc(CN2CC[C@@H](Nc3nc(-c4ccc5c(c4)OCO5)cn4ccnc34)C2)cc1	> 50	> 50	< 50	> 50				
Clc1ccccc1-c1cn2ccnc2c(Nc2ccc3[nH]ccc3c2)n1	< 50	< 50	< 50	> 50				
CN(C)CCNC(=O)c1ccc(-c2cn3ccnc3c(Nc3ccc(C(=O)O)cc3)n2)cc1	< 50	< 50	< 50	< 50				
CN(C)C(=O)COc1cccc(Nc2nc(-c3cccc(N)c3)cn3ccnc23)c1	< 50	< 50	< 50	< 50				
CCCC/C=C/c1cn2ccnc2c(Nc2ccc(N(CC)CCO)cc2)n1	< 50	< 50	< 50	< 50				
CCN(CCO)c1ccc(Nc2nc(-c3ccccc3)cn3ccnc23)cc1	< 50	< 50	< 50	< 50				
CN(C)C(=O)COc1cccc(Nc2nc(-c3ccccc3)cn3ccnc23)c1	< 50	< 50	< 50	> 50				
CCN(CCO)c1ccc(Nc2nc(-c3ccccc3Cl)cn3ccnc23)cc1	< 50	< 50	< 50	< 50				
CN(C)C(=O)COc1cccc(Nc2nc(-c3ccccc3Cl)cn3ccnc23)c1	< 50	< 50	< 50	< 50				
CCN(CCO)c1ccc(Nc2nc(-c3ccc(F)c(Cl)c3)cn3ccnc23)cc1	< 50	< 50	< 50	> 50				
Fc1ccc(-c2cncc(N3CCN(CCN4CCCC4)CC3)n2)cc1Cl [CY734702]					< 50	< 50	< 50	< 50
